Reference: US20240254087A1, “SELECTIVE, PARTIAL, AND ARRESTIN-BIASED 5-HT2A AGONISTS WITH UTILITY IN VARIOUS DISORDERS” (Saint Joseph's University, priority 2021, published 2024)

Legend:
mice = experiment: PCP-induced locomotor hyperactivity; type: in vivo, mouse
Description: (A). DOI, a hallucinogen and 5-HT2A agonist, was administered IP 10 min after SC administration of vehicle or test drug. A and then HTR activity was assessed for 30 minutes. *p<0.001, significant difference vs. vehicle (B). Vehicle or the NMDA receptor antagonist PCP (5 mg/kg) was injected IP 10 min after SC administration of vehicle or 25N-NB1-Nap (16), and then the mice were placed in the test chambers 10 min later for a 60-min assessment of locomotor activity. (C). […] Mice were treated with vehicle or M100907 (0.03 mg/kg SC) 10 min prior to vehicle or PCP (5 mg/kg IP): animals were placed in the test chambers 10 min after treatment with PCP. Animals were tested for 60 min. *p<0.01 vs. vehicle: ^#p<0.01 vs. PCP alone.
Male C57BL/6J mice (6-8 weeks old) from Jackson Labs (Bar Harbor, ME, USA) were used for the behavioral experiments. The mice were housed on a reversed light-dark cycle (lights on at 1900 h, off at 0700 h) in an AAAC-approved vivarium at the University of California San Diego. Mice were housed up to four per cage in a climate-controlled room and with food and water provided ad libitum except during behavioral testing. Testing was performed between 1000 and 1800 h (during the dark phase of the light-dark cycle). The studies were conducted in accordance with National Institutes Health (NIH) guidelines and were approved by the University of California San Diego Institutional Animal Care and Use Committee.
Edelfosine, DOI, R—(−)-DOI, and PCP were injected IP (5 mL/kg): 25N—NB and its derivatives were injected SC (5 mL/kg or 10 mL/kg): YM-254,890 was injected into the lateral ventricle (2 μL) over 1 min.
The mouse behavioral pattern monitor (BPM) was used to assess locomotor activity. Each mouse BPM chamber (San Diego Instruments, San Diego, CA, USA) is a transparent Plexiglas box with an opaque 30×60 cm floor, enclosed in a ventilated isolation box. The position of the mouse in x.y coordinates is recorded by a grid of 12×24 infrared photobeams located 1 cm above the floor. A second row of 16 photobeams (parallel to the long axis of the chamber, located 2.5 cm above the floor) is used to detect rearing behavior. Holepoking behavior is detected by 11 1.4-cm holes that are situated in the walls (3 holes in each long wall, 2 holes in each short wall) and the floor ([…]); each hole is equipped with an infrared photobeam. The status of each photobeam is sampled every 55 ms and recorded for offline analysis. Locomotor activity was quantified as distance traveled, which was analyzed in 20-min blocks using a three-way ANOVA, with pretreatment and treatment as between subject variables and time as a within-subject variable. Tukey's studentized range method was used for post hoc comparisons.

humans = conditions: intranasal or sublingual routes; cited from earlier work

SMILES	Effect on baseline locomotor activity (mice; 3 mg/kg SC)	Effect on PCP-induced locomotor hyperactivity (mice; PCP 5 mg/kg IP, 25N-N1-Nap 3 mg/kg SC, M100907 0.03 mg/kg SC)	Active dose in humans (humans)
COc1cc([N+](=O)[O-])c(OC)cc1CCNCc1cccc2ccccc12 [25N-N-1-Nap (16), [2-(2,5-dimethoxy-4-nitrophenyl)ethyl][(naphthalen-1-yl)methyl]amine]	had no effect	antagonized	–
COc1cc([N+](=O)[O-])c(OC)cc1CCNCc1ccccc1OC [25N-NBOMe (4), [2-(2,5-dimethoxy-4-nitrophenyl)ethyl] [(2-methoxyphenyl)methyl]amine]	–	–	0.3 to 0.8 mg
